Laboratory results taken from publication PMC7413516, “Antidepressant-like activity and safety profile evaluation of 1H-imidazo[2,1-f]purine-2,4(3H,8H)-dione derivatives as 5-HT1A receptor partial agonists” (PLoS ONE, 2020).
Several values for one entry are separate records, joined by “and”; a condition that tells them apart may be missing. Identical values can stand only once. Like-named read-outs stand apart in the source and are kept apart here.

Assay: Pharmacokinetic study in mice, plasma and brain structures, LC/MS/MS
Type: in vivo, Swiss albino mice
Settings: 0.625 mg/kg i.p.; for Kp: ratio of AUC values
Protocol: Blood samples from the Swiss albino mice were collected at 0 (pre-dose), 5, 15, 30, 60, 120, 240 and 480 min after a compound administration. The blood samples and brain structures were collected under general anesthesia induced by i.p. injection of 50 mg/kg ketamine plus 8 mg/kg xylazine. The blood samples were taken into heparinized tubes, immediately centrifuged at 1000 × g for 10 min, and plasma was collected. The plasma samples and brain structures were immediately frozen at -30°C and -80°C, respectively.
The plasma and tissue sample pretreatment procedure involved acetonitrile precipitation. A 5 μL aliquot of the IS working solution (100 ng/mL) was added to 50 μL of the collected mouse plasma sample, which was then vortex-mixed for 10 seconds. Thereafter, 200 μL of acetonitrile was added, vortexed during 20 min, and then centrifuged (1000 × g, 10 min). The supernatant (100 μL) was then transferred to insert placed in an autosampler vial, and a 10 μL volume of this was injected onto the HPLC column. Tissue samples were thawed before use, and whole hippocampus, striatum and frontal cortex were weighted and placed in a glass mortar and pestle tissue grinder and homogenized with an appropriate amount of phosphate buffer (pH 7.4) in 1:5 ratio. Afterward, 50 μL of tissue homogenates were transferred to new Eppendorf tubes and spiked with 5 μL of the internal standard working solution. All samples were stored on ice during the preparation process. This was followed by procedures like those described above.
The LC/ESI-MS/MS experiments were performed on an Applied Biosystems/MDS Sciex (Concord, Ontario, Canada) API 2000 triple quadrupole mass spectrometer equipped with an electrospray (ESI) ionization interface. This instrument was coupled to an Agilent 1100 (Agilent Technologies, Waldbronn, Germany) LC system. Data acquisition and processing were accomplished using Sciex Analyst 1.4.2 data collection and integration software.
An XBridge C18 (2.1 x 30 mm, 3.5 μm) analytical column (Waters, Milford, Massachusetts, USA) was used for compound separation. The temperatures of the column thermostat and the autosampler were set at 25°C and 10°C, respectively. The mobile phase consisted of a mixture of acetonitrile with addition of 0.1% formic acid (solvent A) and water with addition of 0.1% formic acid (solvent B) and was set at a flow rate of 0.6 mL/min. Starting amount of solvent A is 10%, isocratic elution from 0 to 3 min, and then gradient up to 90% of solvent A, and maintained to 10 min, and then gradient down to 10% of solvent A, and maintained to 15 min.
The ion source parameters were as follows: ion spray voltage: 5500 V; nebulizer gas (gas 1): 20 psi; turbo gas (gas 2): 25 psi; temperature of the heated nebulizer: 400°C; curtain gas: 40 psi; collision gas: 6 psi. Mass spectra were acquired by SRM with precursor/predominant product ion transitions for each analyte. The mass spectral Q1→Q3 transitions monitored for AZ-853, AZ-861 and for IS (nebivolol), were m/z 453.9→235.1; 504.3→285.1 and 406.2→151.1, respectively. The peak widths of precursor and product ions were set to 0.7 full width half-height. Quantification was done via peak area ratio.
Pharmacokinetic parameters were calculated by a non-compartmental approach from the average concentration values, using Phoenix WinNonlin software (Certara, Princeton, NJ 08540 USA). First order elimination rate constant (λz) was calculated by linear regression of time versus log concentration. Next, the area under the mean serum and tissue concentration versus time curve (AUC0→t) was estimated using the log-linear trapezoidal rule (1), where Ci is the plasma concentration measured at t1.
AUC0→t=∑i=1n((Ci+Ci+1)/2)∙(ti+1−ti). (1)
Area under the first-moment curve (AUMC0→t) was estimated by calculation of the total area under the first-moment curve using the Eq (2), where Ci is the plasma concentration measured at t1. AUMC0→t=∑i=1n((ti∙Ci+ti+1∙Ci+1)/2)∙(ti+1−ti). […]

[1] = Swiss albino, mouse, frontal cortex, ip, 0.625 mg/kg, read-out: Concentration, frontal cortex (Mean)
[2] = Swiss albino, mouse, frontal cortex, ip, 0.625 mg/kg, read-out: Concentration, frontal cortex (individual animals)

Cn1c(=O)c2c(nc3n(CCCCN4CCN(c5ccccc5F)CC4)ccn23)n(C)c1=O [AZ-853, 8-(4-(4-(2-fluorophenyl)piperazin-1-yl)butyl)-1,3-dimethyl-1H-imidazo[2,1-f]purine-2,4(3H,8H)-dione]
t0.5: ca. 1.5 h | t0.5, frontal cortex: 73.8 min | t0.5, hippocampus: 140.8 min | t0.5, striatum: 74.3 min | Cmax, plasma (0.625 mg/kg): 23.1 ng/mL | t0.5, plasma (0.625 mg/kg): 81 min and 81.6 min | Concentration, frontal cortex (individual animals) (15 min, 0.625 mg/kg): 252.14 ng/mL and 309.85 ng/mL and 312.66 ng/mL and 273.19 ng/mL and 294.14 ng/mL | Concentration, hippocampus (individual animals) (15 min, 0.625 mg/kg): 298.87 ng/mL and 267.61 ng/mL and 299.52 ng/mL and 245.78 ng/mL and 289.53 ng/mL | Concentration, plasma (individual animals) (15 min, 0.625 mg/kg): 13.52 ng/mL and 11.72 ng/mL and 14.74 ng/mL and 12.63 ng/mL and 15.85 ng/mL | Concentration, striatum (individual animals) (15 min, 0.625 mg/kg): 445.83 ng/mL and 472.52 ng/mL and 361.97 ng/mL and 346.18 ng/mL and 398.36 ng/mL | Concentration, frontal cortex (individual animals) (30 min, 0.625 mg/kg): 130.57 ng/mL and 174.17 ng/mL and 183.87 ng/mL and 124.72 ng/mL and 156.16 ng/mL | Concentration, hippocampus (individual animals) (30 min, 0.625 mg/kg): 132.11 ng/mL and 120.56 ng/mL and 144.33 ng/mL and 115.85 ng/mL and 113.92 ng/mL | Concentration, plasma (individual animals) (30 min, 0.625 mg/kg): 7.23 ng/mL and 6.19 ng/mL and 8.12 ng/mL and 7.41 ng/mL and 8.48 ng/mL | Concentration, striatum (individual animals) (30 min, 0.625 mg/kg): 208.14 ng/mL and 240.54 ng/mL and 302.57 ng/mL and 256.75 ng/mL and 253.77 ng/mL | Concentration, frontal cortex (individual animals) (60 min, 0.625 mg/kg): 87.55 ng/mL and 56.45 ng/mL and 81.65 ng/mL and 55.78 ng/mL and 58.24 ng/mL | Concentration, hippocampus (individual animals) (60 min, 0.625 mg/kg): 35.33 ng/mL and 56.52 ng/mL and 54.16 ng/mL and 46.72 ng/mL and 33.91 ng/mL | Concentration, plasma (individual animals) (60 min, 0.625 mg/kg): 2.33 ng/mL and 1.80 ng/mL and 1.95 ng/mL and 1.94 ng/mL and 1.84 ng/mL and 0.83 ng/mL | Concentration, striatum (individual animals) (60 min, 0.625 mg/kg): 49.55 ng/mL and 56.86 ng/mL and 68.93 ng/mL and 73.14 ng/mL and 66.26 ng/mL | Concentration, frontal cortex (individual animals) (120 min, 0.625 mg/kg): 32.55 ng/mL and 33.75 ng/mL and 20.15 ng/mL and 30.26 ng/mL and 26.34 ng/mL | Concentration, hippocampus (individual animals) (120 min, 0.625 mg/kg): 15.62 ng/mL and 13.22 ng/mL and 11.37 ng/mL and 10.24 ng/mL and 11.13 ng/mL | Concentration, plasma (individual animals) (120 min, 0.625 mg/kg): 4.86 ng/mL and 4.58 ng/mL and 4.97 ng/mL and 3.54 ng/mL and 3.31 ng/mL | Concentration, striatum (individual animals) (120 min, 0.625 mg/kg): 39.45 ng/mL and 31.62 ng/mL and 38.75 ng/mL and 47.66 ng/mL and 39.13 ng/mL | Concentration, frontal cortex (individual animals) (240 min, 0.625 mg/kg): 24.26 ng/mL and 26.65 ng/mL and 19.77 ng/mL and 20.56 ng/mL | Concentration, hippocampus (individual animals) (240 min, 0.625 mg/kg): 6.95 ng/mL and 9.12 ng/mL and 10.23 ng/mL and 6.87 ng/mL | Concentration, plasma (individual animals) (240 min, 0.625 mg/kg): 0.37 ng/mL and 0.35 ng/mL and 0.45 ng/mL and 0.53 ng/mL and 0.33 ng/mL and 0.26 ng/mL | Concentration, striatum (individual animals) (240 min, 0.625 mg/kg): 2.35 ng/mL and 3.41 ng/mL and 6.93 ng/mL and 8.25 ng/mL and 6.34 ng/mL | Kp (Swiss albino, mouse, frontal cortex, ip, read-out: Brain structure-to-plasma concentration ratio, frontal cortex (FC/P)): 18.1 | AUC(0-t) (Swiss albino, mouse, frontal cortex, ip, read-out: AUC0→t, frontal cortex (converted)): 321 ng·h/mL | MRT (Swiss albino, mouse, frontal cortex, ip, read-out: MRT, frontal cortex (converted)): 1.5 h | concentration at 5 min [1]: 306 ng/mL | concentration at 5 min [2]: 268 ng/mL | concentration at 15 min (Swiss albino, mouse, frontal cortex, ip, 0.625 mg/kg, 15 min, read-out: Concentration, frontal cortex (Mean)): 293 ng/mL | concentration at 15 min (Swiss albino, mouse, frontal cortex, ip, 0.625 mg/kg, 15 min, read-out: Concentration, frontal cortex (individual animals)): 318 ng/mL | concentration at 30 min (Swiss albino, mouse, frontal cortex, ip, 0.625 mg/kg, 30 min, read-out: Concentration, frontal cortex (Mean)): 156 ng/mL | concentration at 30 min (Swiss albino, mouse, frontal cortex, ip, 0.625 mg/kg, 30 min, read-out: Concentration, frontal cortex (individual animals)): 165 ng/mL | concentration at 60 min (Swiss albino, mouse, frontal cortex, ip, 0.625 mg/kg, 60 min, read-out: Concentration, frontal cortex (Mean)): 66 ng/mL | concentration at 60 min (Swiss albino, mouse, frontal cortex, ip, 0.625 mg/kg, 60 min, read-out: Concentration, frontal cortex (individual animals)): 56.3 ng/mL | concentration at 120 min (Swiss albino, mouse, frontal cortex, ip, 0.625 mg/kg, 120 min, read-out: Concentration, frontal cortex (Mean)): 27.5 ng/mL | concentration at 120 min (Swiss albino, mouse, frontal cortex, ip, 0.625 mg/kg, 120 min, read-out: Concentration, frontal cortex (individual animals)): 22.2 ng/mL | concentration at 240 min (Swiss albino, mouse, frontal cortex, ip, 0.625 mg/kg, 240 min, read-out: Concentration, frontal cortex (Mean)): 23.3 ng/mL | concentration at 240 min (Swiss albino, mouse, frontal cortex, ip, 0.625 mg/kg, 240 min, read-out: Concentration, frontal cortex (individual animals)): 20.8 ng/mL | concentration at 480 min [1]: 14.6 ng/mL | concentration at 480 min [2]: 18.6 ng/mL | Cmax (Swiss albino, mouse, frontal cortex, ip, 0.625 mg/kg, read-out: Cmax, frontal cortex): 306 ng/g | Tmax (Swiss albino, mouse, frontal cortex, ip, 0.625 mg/kg, read-out: tmax, frontal cortex (converted)): 5 min | Kp (Swiss albino, mouse, hippocampus, ip, read-out: Brain structure-to-plasma concentration ratio, hippocampus (H/P)): 11.9 | AUC(0-t) (Swiss albino, mouse, hippocampus, ip, read-out: AUC0→t, hippocampus (converted)): 210 ng·h/mL | MRT (Swiss albino, mouse, hippocampus, ip, read-out: MRT, hippocampus (converted)): 1.19 h | concentration at 5 min (Swiss albino, mouse, hippocampus, ip, 0.625 mg/kg, read-out: Concentration, hippocampus (Mean)): 191 ng/mL
